Patent US6967211B2, “Remedial agent for chronic articular rheumatism” (Nippon Shinyaku Co. Ltd., priority 2002, dated 2005)
Read-outs that look alike come from different tables or passages of the source. Marks after values point to notes of the source that are not given here.

How the values were obtained:
[1] = tested on: type II collagen-induced arthritis; conditions: for Inhibition ratio (%): arthritis score 35 days after primary sensitization
Protocol: 8-week-old DBA/1J male mice (7 to 10 mice) were used. 0.1 ml of an emulsion prepared by mixing a 0.1 M solution of acetic acid in physiological saline (2 mg/ml) of type II collagen derived from bovine joint cartilage and complete Freund's adjuvant at a mixing ratio of 1:1 was injected intradermally at the base of the tail in mice (primary sensitization). 21 days later, 0.1 ml of the emulsion prepared in the same manner as in case of primary sensitization was injected subcutaneously again at the back in mice (secondary sensitization). The test compound was suspended in an aqueous 0.5% methyl cellulose solution and administered orally to the mice once a day, which started from the primary or secondary sensitization. After 35 days from the primary sensitization, symptoms of arthritis was visually observed and the results were used a score of arthritis.

CDF1 male mice = conditions: single oral administration
Protocol: 7-week-old CDF1 male mice (6 mice) were used. The compound 1 was suspended in 0.5% methylcellulose and the resulting suspension was orally administered once by oral probe. The mortality rate was investigated after 2 weeks and the LD50 value was calculated by the probit method.

SMILES: COc1ccc(S(=O)(=O)N(C(C)=O)c2ccccc2/C=C/c2cc[n+]([O-])cc2)cc1 [Compound 1]
- Inhibition ratio (%) ([1]; 1 mg/kg orally once a day, started from the primary sensitization): −8.5%
- inhibitory effect on type II collagen-induced arthritis (in words) ([1]; 5 mg/kg from the primary sensitization, or 5 and 10 mg/kg from the secondary sensitization): significant inhibitory effect
- Inhibition ratio (%) ([1]; 5 mg/kg orally once a day, started from the primary sensitization): 69.5* %
- Inhibition ratio (%) ([1]; 5 mg/kg orally once a day, started from the secondary sensitization): 69.6* %
- Inhibition ratio (%) ([1]; 10 mg/kg orally once a day, started from the secondary sensitization): 100.0** %
- toxicity (in words) (CDF1 male mice; mice): very low toxicity
- LD50 value (CDF1 male mice; mortality after 2 weeks, probit method): 620.5 mg/kg
